The values that follow come from patent publication US7098039B1, “Analysis of a sample to determine its characteristic cycle time” (The Victoria University of Manchester, priority 1998, dated 2006).

Where two headings read alike, the source gives them in different places.

This assay deals with peptide sequence VCDWWGWGIC (mimic of the binding of drugs by the drug efflux protein P-glycoprotein). Kind of assay: Quenching of the natural tryptophan fluorescence of peptide […] on drug binding (FIG. 7h titration). The note with it: for relative intensity of the peak at 359.25 nm, indicating the degree of quenching: peptide 49.1 μM, 0.1 M Tris pH 7.5. From the text:
The system illustrated in FIG. 7 may be a drug binding to a protein or peptide comprising fluorescent amino acids at the site of binding.
The number in brackets, following each titration, is the relative intensity of the peak at 359.25 nm, indicating the degree of quenching.

Setting [1] is: peptide VCDWWGWGIC, linear sequence or cyclised, result in words.

With `CC[C@]1(O)C[C@@H]2CN(CCc3c([nH]c4ccccc34)[C@@](C(=O)OC)(c3cc4c(cc3OC)N(C)[C@H]3[C@@](O)(C(=O)OC)[C@H](OC(C)=O)[C@]5(CC)C=CCN6CC[C@]43[C@@H]65)C2)C1` [Vinblastine], the “natural tryptophan fluorescence of the peptide quenched by the drug” value (“natural tryptophan fluorescence” for short) under setting [1] is “quenched”.
In the case of `COc1cccc2c1C(=O)c1c(O)c3c(c(O)c1C2=O)C[C@@](O)(C(=O)CO)C[C@@H]3O[C@H]1C[C@H](N)[C@H](O)[C@H](C)O1` [Doxorubicin], the “natural tryptophan fluorescence” value under setting [1] is listed as “quenched”. Besides, the “relative intensity of the peak at 359.25 nm, indicating the degree of quenching” value (“relative intensity of the peak” for short) is, setting by setting: (peptide:doxorubicin 1:0.1, 2.9 ml, without doxorubicin normalised at 999.99) 917.99; (peptide:doxorubicin 1:0.2, without doxorubicin 999.99) 835.53; (peptide:doxorubicin 1:0.3, without doxorubicin 999.99) 769.34; (peptide:doxorubicin 1:0.4, without doxorubicin 999.99) 704.25; (peptide:doxorubicin 1:0.5, without doxorubicin 999.99) 633.91; (peptide:doxorubicin 1:0.6, without doxorubicin 999.99) 594.31. Also, the “relative intensity of the peak” value (peptide:doxorubicin 1:0.7, without doxorubicin 999.99) is 547.73; the “relative intensity of the peak” value (peptide:doxorubicin 1:0.8, without doxorubicin 999.99) amounted to 498.54; the “relative intensity of the peak” value (peptide:doxorubicin 1:0.9, without doxorubicin 999.99) is 457.70; the “relative intensity of the peak” value (peptide:doxorubicin 1:1, without doxorubicin 999.99) stood at 415.96; the “relative intensity of the peak” value (peptide:doxorubicin 1:1.1, without doxorubicin 999.99) was 390.24.
Regarding `CC[C@H]1OC(=O)[C@H](C)[C@@H](O[C@H]2C[C@@](C)(OC)[C@@H](O)[C@H](C)O2)[C@H](C)[C@@H](O[C@@H]2O[C@H](C)C[C@H](N(C)C)[C@H]2O)[C@](C)(O)C[C@@H](C)C(=O)[C@H](C)[C@@H](O)[C@]1(C)O` [Erythromycin], the “natural tryptophan fluorescence” value under setting [1] is on record as “quenched”.
With `C[C@H]1O[C@@H](O[C@H]2[C@@H](O)C[C@H](O[C@H]3[C@@H](O)C[C@H](O[C@H]4CC[C@@]5(C)[C@H](CC[C@@H]6[C@@H]5C[C@@H](O)[C@]5(C)[C@@H](C7=CC(=O)OC7)CC[C@]65O)C4)O[C@@H]3C)O[C@@H]2C)C[C@H](O)[C@@H]1O` [Digoxin], under setting [1], the “natural tryptophan fluorescence” value is listed as “quenched”.
Regarding `COC(=O)[C@H]1[C@H]2C[C@@H]3c4[nH]c5cc(OC)ccc5c4CCN3C[C@H]2C[C@@H](OC(=O)c2cc(OC)c(OC)c(OC)c2)[C@@H]1OC` [Reserpine], the “natural tryptophan fluorescence” value under setting [1] is given as “quenched”.
For `CN1C(=O)CN=C(c2ccccc2)c2cc(Cl)ccc21` [Diazepam], the “natural tryptophan fluorescence” value was “quenched”.
`O=c1c(-c2ccc(O)cc2)coc2cc(O)cc(O)c12` [Genistein]: the “natural tryptophan fluorescence” value (peptide […], linear sequence or cyclised, result in words) is “quenched”.
In the case of `CO[C@@H]1[C@@H](OC(N)=O)[C@@H](O)[C@H](Oc2ccc3c(O)c(NC(=O)c4ccc(O)c(CC=C(C)C)c4)c(=O)oc3c2C)OC1(C)C` [Novobiocin], the “natural tryptophan fluorescence” value under setting [1] is “quenched”.
With `N[C@@H](Cc1ccc(N(CCCl)CCCl)cc1)C(=O)O` [Melphalan], under setting [1], the “natural tryptophan fluorescence” value is given as “quenched”.
For the compound Cyclosporin A, the “natural tryptophan fluorescence” value under setting [1] is recorded as “quenched”.
